Results published in patent US20100267561A1, “HERBICIDAL PYRIDAZINONE DERIVATIVES” (priority 2007, published 2010).

Legend:
Assay in all cases: Test E pre-/postemergence plant response
Type in all cases: in vivo
[1] = tested on: Italian ryegrass (Lolium multiflorum); details: scale 0 to 100
Description: (§1) Seeds of plant species selected from bermudagrass (Cynodon dactylon), Surinam grass (Brachiaria decumbens), large crabgrass (Digitaria sanguinalis), green foxtail (Setaria viridis), goosegrass (Eleusine indica), johnsongrass (Sorghum halepense), kochia (Kochia scoparia), pitted morningglory (Ipomoea lacunosa), purple nutsedge (Cyperus rotundus), common ragweed (Ambrosia elation), black mustard (Brassica nigra), guineagrass (Panicum maximum), dallisgrass (Paspalum dilatatum), barnyardgrass (Echinochloa crus-galli), southern (S.) sandbur (Cenchrus echinatus), common sowthistle (Sonchus oleraceous), prickly sida (Sida spinosa), Italian ryegrass (Lolium multiflorum), common purslane (Portulaca oleracea), broadleaf signalgrass (Brachiaria platyphylla), common groundsel (Senecio vulgaris), common chickweed (Stellaria media), Virginia (V.) dayflower (Commelina virginica), tropical (T.) spiderwort (Commelina benghalensis), annual bluegrass (Poa annua), naked crabgrass (Digitaria nuda), itchgrass (Rottboellia cochinchinensis), quackgrass (Elytrigia repens), Canada horseweed (Conyza canadensis), field bindweed (Convolvulus arvensis), spanishneedles (Bidens bipinnata), common mallow (Malva sylvestris) and Russian thistle (Salsola kali) were planted and treated preemergence with test chemicals formulated in a non-phytotoxic solvent mixture which included a surfactant. At the same time, plants selected from these weed species were treated with postemergence applications of some of the test chemicals formulated in the same manner. Plants ranged in height from 2 to 18 cm (1- to 4-leaf stage) for postemergence treatments.
(§2) Treated plants and controls were maintained in a greenhouse for 14 to 21 days, after which time all species were compared to controls and visually evaluated. Plant response ratings, summarized in Table E, are based on a scale of 0 to 100 where 0 is no effect and 100 is complete control. A dash (-) response means no test result.

[2] = tested on: annual bluegrass (Poa annua); details: scale 0 to 100
Description: as §1, §2

[3] = tested on: barnyardgrass (Echinochloa crus-galli); details: scale 0 to 100
Description: as §1, §2

[4] = tested on: bermudagrass (Cynodon dactylon); details: scale 0 to 100
Description: as §1, §2

[5] = tested on: black mustard (Brassica nigra); details: scale 0 to 100
Description: as §1, §2

[6] = tested on: broadleaf signalgrass (Brachiaria platyphylla); details: scale 0 to 100
Description: as §1, §2

[7] = tested on: common mallow (Malva sylvestris); details: Postemergence, scale 0 to 100
Description: as §1, §2

[8] = tested on: common purslane (Portulaca oleracea); details: scale 0 to 100
Description: as §1, §2

[9] = tested on: dallisgrass (Paspalum dilatatum); details: scale 0 to 100
Description: as §1, §2

[10] = tested on: green foxtail (Setaria viridis); details: scale 0 to 100
Description: as §1, §2

[11] = tested on: guineagrass (Panicum maximum); details: scale 0 to 100
Description: as §1, §2

[12] = tested on: itchgrass (Rottboellia cochinchinensis); details: scale 0 to 100
Description: as §1, §2

[13] = tested on: johnsongrass (Sorghum halepense); details: scale 0 to 100
Description: as §1, §2

[14] = tested on: pitted morningglory (Ipomoea lacunosa); details: scale 0 to 100
Description: as §1, §2

[15] = tested on: purple nutsedge (Cyperus rotundus); details: scale 0 to 100
Description: as §1, §2

[16] = tested on: southern (S.) sandbur (Cenchrus echinatus); details: scale 0 to 100
Description: as §1, §2

[17] = tested on: surinam grass (Brachiaria decumbens); details: scale 0 to 100
Description: as §1, §2

CCc1cc(-c2ccc(Cl)cc2)nn1-c1c(O)cnn(C)c1=O [Compound 21]
Plant response rating, Ryegrass, Italian ([1]; 16 g ai/ha, Preemergence): 100
Plant response rating, Ryegrass, Italian ([1]; 31 g ai/ha, Preemergence): 100
Plant response rating, Ryegrass, Italian ([1]; 62 g ai/ha, Preemergence): 100
Plant response rating, Ryegrass, Italian ([1]; Postemergence, 8 g ai/ha): 80
Plant response rating, Ryegrass, Italian ([1]; Postemergence, 16 g ai/ha): 98
Plant response rating, Ryegrass, Italian ([1]; Postemergence, 31 g ai/ha): 100
Plant response rating, Ryegrass, Italian ([1]; Postemergence, 62 g ai/ha): 100
Plant response rating, Bluegrass ([2]; 8 g ai/ha, Preemergence): 0
Plant response rating, Bluegrass ([2]; 16 g ai/ha, Preemergence): 0
Plant response rating, Bluegrass ([2]; 31 g ai/ha, Preemergence): 0
Plant response rating, Bluegrass ([2]; 62 g ai/ha, Preemergence): 0
Plant response rating, Bluegrass ([2]; Postemergence, 8 g ai/ha): 0
Plant response rating, Bluegrass ([2]; Postemergence, 16 g ai/ha): 0
Plant response rating, Bluegrass ([2]; Postemergence, 31 g ai/ha): 10
Plant response rating, Bluegrass ([2]; Postemergence, 62 g ai/ha): 15
Plant response rating, Barnyardgrass ([3]; 8 g ai/ha, Preemergence): 95
Plant response rating, Barnyardgrass ([3]; 16 g ai/ha, Preemergence): 100
Plant response rating, Barnyardgrass ([3]; 31 g ai/ha, Preemergence): 100
Plant response rating, Barnyardgrass ([3]; 62 g ai/ha, Preemergence): 100
Plant response rating, Barnyardgrass ([3]; Postemergence, 8 g ai/ha): 100
Plant response rating, Barnyardgrass ([3]; Postemergence, 16 g ai/ha): 100
Plant response rating, Barnyardgrass ([3]; Postemergence, 31 g ai/ha): 100
Plant response rating, Barnyardgrass ([3]; Postemergence, 62 g ai/ha): 100
Plant response rating, Bermudagrass ([4]; 8 g ai/ha, Preemergence): 40
Plant response rating, Bermudagrass ([4]; 16 g ai/ha, Preemergence): 90
Plant response rating, Bermudagrass ([4]; 31 g ai/ha, Preemergence): 95
Plant response rating, Bermudagrass ([4]; 62 g ai/ha, Preemergence): 100
Plant response rating, Bermudagrass ([4]; Postemergence, 8 g ai/ha): 40
Plant response rating, Bermudagrass ([4]; Postemergence, 16 g ai/ha): 50
Plant response rating, Bermudagrass ([4]; Postemergence, 31 g ai/ha): 65
Plant response rating, Bermudagrass ([4]; Postemergence, 62 g ai/ha): 75
Plant response rating, Mustard, Black ([5]; 8 g ai/ha, Preemergence): 0
Plant response rating, Mustard, Black ([5]; 16 g ai/ha, Preemergence): 0
Plant response rating, Mustard, Black ([5]; 31 g ai/ha, Preemergence): 0
Plant response rating, Mustard, Black ([5]; 62 g ai/ha, Preemergence): 0
Plant response rating, Mustard, Black ([5]; Postemergence, 8 g ai/ha): 0
Plant response rating, Mustard, Black ([5]; Postemergence, 16 g ai/ha): 0
Plant response rating, Mustard, Black ([5]; Postemergence, 31 g ai/ha): 0
Plant response rating, Mustard, Black ([5]; Postemergence, 62 g ai/ha): 0
Plant response rating, Signalgrass ([6]; 16 g ai/ha, Preemergence): 98
Plant response rating, Signalgrass ([6]; 31 g ai/ha, Preemergence): 100
Plant response rating, Signalgrass ([6]; 62 g ai/ha, Preemergence): 100
Plant response rating, Signalgrass ([6]; Postemergence, 8 g ai/ha): 80
Plant response rating, Signalgrass ([6]; Postemergence, 16 g ai/ha): 90
Plant response rating, Signalgrass ([6]; Postemergence, 31 g ai/ha): 100
Plant response rating, Signalgrass ([6]; Postemergence, 62 g ai/ha): 100
Plant response rating, Mallow ([7]; 8 g ai/ha): 0
Plant response rating, Mallow ([7]; 16 g ai/ha): 0
Plant response rating, Mallow ([7]; 31 g ai/ha): 0
Plant response rating, Mallow ([7]; 62 g ai/ha): 0
Plant response rating, Purslane ([8]; 16 g ai/ha, Preemergence): 0
Plant response rating, Purslane ([8]; 31 g ai/ha, Preemergence): 0
Plant response rating, Purslane ([8]; 62 g ai/ha, Preemergence): 0
Plant response rating, Purslane ([8]; Postemergence, 8 g ai/ha): 0
Plant response rating, Purslane ([8]; Postemergence, 16 g ai/ha): 0
Plant response rating, Purslane ([8]; Postemergence, 31 g ai/ha): 0
Plant response rating, Purslane ([8]; Postemergence, 62 g ai/ha): 0
Plant response rating, Dallisgrass ([9]; 8 g ai/ha, Preemergence): 80
Plant response rating, Dallisgrass ([9]; 16 g ai/ha, Preemergence): 100
Plant response rating, Dallisgrass ([9]; 31 g ai/ha, Preemergence): 100
Plant response rating, Dallisgrass ([9]; 62 g ai/ha, Preemergence): 100
Plant response rating, Dallisgrass ([9]; Postemergence, 8 g ai/ha): 75
Plant response rating, Dallisgrass ([9]; Postemergence, 16 g ai/ha): 80
Plant response rating, Dallisgrass ([9]; Postemergence, 31 g ai/ha): 85
Plant response rating, Dallisgrass ([9]; Postemergence, 62 g ai/ha): 98
Plant response rating, Foxtail, Green ([10]; 8 g ai/ha, Preemergence): 75
Plant response rating, Foxtail, Green ([10]; 16 g ai/ha, Preemergence): 100
Plant response rating, Foxtail, Green ([10]; 31 g ai/ha, Preemergence): 100
Plant response rating, Foxtail, Green ([10]; 62 g ai/ha, Preemergence): 100
Plant response rating, Foxtail, Green ([10]; Postemergence, 8 g ai/ha): 65
Plant response rating, Foxtail, Green ([10]; Postemergence, 16 g ai/ha): 75
Plant response rating, Foxtail, Green ([10]; Postemergence, 31 g ai/ha): 95
Plant response rating, Foxtail, Green ([10]; Postemergence, 62 g ai/ha): 100
Plant response rating, Guineagrass ([11]; 16 g ai/ha, Preemergence): 100
Plant response rating, Guineagrass ([11]; 31 g ai/ha, Preemergence): 100
Plant response rating, Guineagrass ([11]; 62 g ai/ha, Preemergence): 100
Plant response rating, Guineagrass ([11]; Postemergence, 8 g ai/ha): 95
Plant response rating, Guineagrass ([11]; Postemergence, 16 g ai/ha): 98
Plant response rating, Guineagrass ([11]; Postemergence, 31 g ai/ha): 100
Plant response rating, Guineagrass ([11]; Postemergence, 62 g ai/ha): 100
Plant response rating, Itchgrass ([12]; 16 g ai/ha, Preemergence): 65
Plant response rating, Itchgrass ([12]; 31 g ai/ha, Preemergence): 75
Plant response rating, Itchgrass ([12]; 62 g ai/ha, Preemergence): 80
Plant response rating, Itchgrass ([12]; Postemergence, 8 g ai/ha): 50
Plant response rating, Itchgrass ([12]; Postemergence, 16 g ai/ha): 65
Plant response rating, Itchgrass ([12]; Postemergence, 31 g ai/ha): 75
Plant response rating, Itchgrass ([12]; Postemergence, 62 g ai/ha): 75
Plant response rating, Johnsongrass ([13]; 16 g ai/ha, Preemergence): 75
Plant response rating, Johnsongrass ([13]; 31 g ai/ha, Preemergence): 90
Plant response rating, Johnsongrass ([13]; 62 g ai/ha, Preemergence): 95
Plant response rating, Johnsongrass ([13]; Postemergence, 8 g ai/ha): 50
Plant response rating, Johnsongrass ([13]; Postemergence, 16 g ai/ha): 65
Plant response rating, Johnsongrass ([13]; Postemergence, 31 g ai/ha): 85
Plant response rating, Johnsongrass ([13]; Postemergence, 62 g ai/ha): 100
Plant response rating, Morningglory ([14]; 16 g ai/ha, Preemergence): 0
Plant response rating, Morningglory ([14]; 31 g ai/ha, Preemergence): 0
Plant response rating, Morningglory ([14]; 62 g ai/ha, Preemergence): 0
Plant response rating, Morningglory ([14]; Postemergence, 8 g ai/ha): 0
Plant response rating, Morningglory ([14]; Postemergence, 16 g ai/ha): 0
Plant response rating, Morningglory ([14]; Postemergence, 31 g ai/ha): 0
Plant response rating, Morningglory ([14]; Postemergence, 62 g ai/ha): 0
Plant response rating, Nutsedge, Purple ([15]; 16 g ai/ha, Preemergence): 0
Plant response rating, Nutsedge, Purple ([15]; 31 g ai/ha, Preemergence): 0
Plant response rating, Nutsedge, Purple ([15]; 62 g ai/ha, Preemergence): 0
Plant response rating, Nutsedge, Purple ([15]; Postemergence, 8 g ai/ha): 0
Plant response rating, Nutsedge, Purple ([15]; Postemergence, 16 g ai/ha): 0
Plant response rating, Nutsedge, Purple ([15]; Postemergence, 31 g ai/ha): 0
Plant response rating, Nutsedge, Purple ([15]; Postemergence, 62 g ai/ha): 0
Plant response rating, Sandbur, S. ([16]; 16 g ai/ha, Preemergence): 98
Plant response rating, Sandbur, S. ([16]; 31 g ai/ha, Preemergence): 100
Plant response rating, Sandbur, S. ([16]; 62 g ai/ha, Preemergence): 100
Plant response rating, Sandbur, S. ([16]; Postemergence, 8 g ai/ha): 80
Plant response rating, Sandbur, S. ([16]; Postemergence, 16 g ai/ha): 80
Plant response rating, Sandbur, S. ([16]; Postemergence, 31 g ai/ha): 95
Plant response rating, Sandbur, S. ([16]; Postemergence, 62 g ai/ha): 100
Plant response rating, Surinam Grass ([17]; 16 g ai/ha, Preemergence): 100
Plant response rating, Surinam Grass ([17]; 31 g ai/ha, Preemergence): 100
Plant response rating, Surinam Grass ([17]; 62 g ai/ha, Preemergence): 100
Plant response rating, Surinam Grass ([17]; Postemergence, 8 g ai/ha): 95
Plant response rating, Surinam Grass ([17]; Postemergence, 16 g ai/ha): 95
Plant response rating, Surinam Grass ([17]; Postemergence, 31 g ai/ha): 100
Plant response rating, Surinam Grass ([17]; Postemergence, 62 g ai/ha): 100
